For four molecules, IC50 results are on record in patent US10472352B2, “Rac inhibitors” (Geneyus LLC, priority 2017, dated 2019).

The test system of test [1] is MCF-7 human breast cancer cell line. The test is described as follows: Cell Viability Assay (MCF7), PrestoBlue. Type of test: cell-based. The note with it: MCF7, 72 h, MCF-7 cells, three days after drug treatment. The protocol: In order to determine a compound's effect on cell viability, PrestoBlue assays were performed as previously described by Kuhn et al. (2013) with modifications. MCF-7 human breast cancer and IGR-1 human melanoma cell lines were seeded into 96-well plates 24 hours prior to addition of drug. Cells were treated with 0 to 200 μM (11 concentrations) of compound solubilized in DMSO, adjusting the final concentration of DMSO to 1% in the well. Three days after drug treatment, cell viability was measured by adding PrestoBlue (Life Technologies Ltd.; cat. No. A13262) reagent directly to wells containing media/drug to reach a final concentration of 10%. PrestoBlue is a modified molecule of the common Alamar Blue probe used to determine viability based on the ability of a cell to metabolize a nonfluorescent compound (resazurin) to a florescent molecule (resorufin). Following a 1 hour incubation period, total well fluorescence was measured using the microplate reader M1000 pro (Tecan) with excitation 560-5 nm and emission 590-5 nm. […] The percentage of living cells was then computed by comparison with control wells. Kuhn, Jonas et al., Assay and Drug Development Technologies, March 2013, Label-Free Cytotoxicity Screening Assay by Digital Holographic Microscopy.

For test [2], the target named is T1, Rac1 protein (Homo sapiens, UniProt P63000).
T1 construct: purchased Cytoskeleton Inc. RC01
As to the kind of experiment: Fluorescence Polarization Assay (Rac1 FP). The note with it: 125 nM his-tagged Rac1, 12.5 nM Bodipy-TR GTPγS, 30 minutes at 37° C. Type of test: binding. The protocol:
Direct binding of Rac1 compound inhibitors to Rac1 protein was performed using fluorescence polarization (FP). Briefly, Rac1 inhibitors were initially dissolved in DMSO and then serial drug dilutions in exchange buffer (20 mM Tris pH 7.5, 50 mM NaCl, 1 mM MgCl, 1 mM EDTA) were prepared in a flat black 96-well half-area plate (Greiner). Recombinant his-tagged Rac1 protein (Cytoskeleton Inc. Cat. # RC01) was added to the inhibitors at a final concentration of 125 nM along with 12.5 nM Bodipy-TR GTPγS (Life Technologies Inc. Cat. # G35780) in exchange buffer and incubated for 30 minutes at 37° C. in exchange buffer. After 30 minutes of incubation. FP was measured on the M1000 Pro (Tecan) fluorescent plate reader with 590 nm±5 nm excitation and 625 nm±5 nm emission spectra settings.

Test [3] has as its target His-Rac1 / GST-PBD (PAK Binding Domain) (Homo sapiens, UniProt P63000). As to the kind of experiment: Rac Activation AlphaScreen Assay (Rac1 AS). Type of test: biochemical. The note with it: 500 nM GTPγS, 37° C., 1 hour; 'positive' = signal generated was higher than the positive control. The protocol:
AlphaScreen® assays were performed in 96-well microplates in a final reaction volume of 60 μl. Recombinant His-Rac1, recombinant GST-PBD (PAK Binding Domain), donor and acceptor beads (PerkinElmer), and inhibitors were incubated in exchange buffer (20 mM Tris pH 7.5, 50 mM NaCl, 1 mM MgCl2, 1 mM EDTA, 500 nM GTPγS (guanosine 5′-[γ-thio]triphosphate)) at 37° C. Readings were performed on a Tecan M1000 pro microplate reader after 1 hour.

Structures are written as SMILES. pIC50: −log10 of the molar value.

`FC(F)(F)c1ccc2c(SCCCCCCCn3cc(CN4CCOCC4)nn3)ccnc2c1` [Compound 0032371, 4-({7-[4-(morpholin-4-ylmethyl)-1H-1,2,3-triazol-1-yl]heptyl}sulfanyl)-7-(trifluoromethyl) quinoline]: the pIC50 in test [1] is 4.95; in test [2] it was 5.43; in test [3], 4.21.

For `CN(Cc1cn(CCCCCCSc2ccnc3cc(C(F)(F)F)ccc23)cn1)c1ccccc1` [Compound 0032887, N-methyl-N-{[1-(6-{[7-(trifluoromethyl)quinolin-4-yl]sulfanyl)hexyl}-1H-imidazol-4-yl]methyl}aniline], the values for the pIC50 in test [1], in test [2] and in test [3] were 4.93, 5.93 and 5.33, respectively.

On to `O=C1COCCN1c1cccc(NCCCCCCSc2ccnc3cc(C(F)(F)F)ccc23)c1` [Compound 0033306, 4-(3-{(6-{[7-(trifluoromethyl)quinolin-4-yl]sulfanyl)hexyl}amino]phenyl} morpholin-3-one], for which the pIC50 in test [1] was 5.45; in test [2], 5.81; in test [3], 5.09.

`FC(F)(F)c1ccc2c(SCCCCCCNc3ccc(N4CCOCC4)cc3)ccnc2c1` [Compound 0033200, 4-(morpholin-4-yl)-N-(6-{[7-(trifluoromethyl)quinolin-4-yl]sulfanyl}hexyl)aniline]: the pIC50 in test [1] is 4.97; in test [2], 6.15; in test [3] it was 5.64.

A word on the pIC50: it is the IC50 on a negative log10 scale, so that one unit is a factor of ten. Lower therefore signals a high IC50.
